According to patent publication US20100092499A1, “Alpha Thymosin Peptides as Cancer Vaccine Adjuvants” (SCICLONE PHARMACEUTICALS, INC., priority 2004, published 2010):

How the values were obtained:
human CD34 stem cells = conditions: added to human CD34 stem cells in culture; cited from earlier work
[1] = in vivo; cited from earlier work
[2] = system: IFNγ, IL-2, IL-3, IL-2 receptor; conditions: following activation by mitogens or antigens; cited from earlier work
advanced breast cancer = test: Clinical study of dendritic cell vaccine with or without thymalfasin in advanced breast cancer patients; type: in vivo, human; conditions: for Patient Survival: 12 months; for Patient Survival / Patients with Tumor Reduction >50%: Group 3 non responders (LPI <20 U), 6 dendritic cell immunizations plus thymalfasin 1.6 mg twice a week, n=5; for Patients with Tumor Reduction >50%: Month 6
Method: Finally, the patients were immunized with the activated B cells hybrid itself, or a B cell hybrid cocultured with the patients' Dendritic Cells. This immunization was applied into a healthy lymph node once every three weeks. At the same time, the patients received 1.6 mg thymalfasin subcutaneously in the evenings (within between 7:00 pm and 9:00 pm) every 3 days during the time of immunization and for the following six months after the vaccination protocol was completed. This vaccination plan may, for example, involve from 4 to 10 doses, although these numbers are not exclusive.
Eighteen patients with advanced breast cancer resistant to chemo, radio and hormonotherapy were treated.
All the patients were female with Breast Cancer class 4 (with metastases).
The age rank was between 39 to 71 years.
The patients were treated with dendritic cell vaccine (according protocol: Annals of Oncology 2004-Vol 15. Supp. 3 Abs: iii40-Dendritic Cell Vaccine for Metastases Breast Cancer).
(§1) After the second vaccination course, the cellular immunization were measured, if this is >=20 ULPI (Linfocitic Proliferative Index) continued with the vaccination.
If the response was <20 ULPI, the patients were divided in 2 groups (randomized) of 5 and 7 patients group. The 5 patients group received Dendritic Cells
Vaccine plus thymalfasin (1.6 mg/tw during 6 months).
The clinical response and the survival data originated on total 18 metastatic breast patients treated were collected and, in order to perform a case serial statistic analysis we divided the total population in three different groups.
In Group 3 (n=5), patients received 6 dendritic cell immunizations with an LPI <20 U (non immune response) after the second vaccine and they received thymalfasin (1.6 mg/twice a week).

patient tumor cells = test: Lymphocyte Proliferation Assay (LPI); type: cell-based, human; conditions: five patients with LPI lower than 20 U after second DC immunization; thymalfasin 1.6 mg twice a week for 6 months plus 4 additional DC vaccine courses
Method: as §1
The patient immune response was measured using a well known in-vitro test named Lymphocyte Proliferation Assay. Briefly, mononuclear cells from the patient were purified and mixed with a suspension of the patient tumor cells at ratio 10:1 (3000 Lympho-monocytes vs 300 tumor cells). The mix cell suspension was seeded in a multi well plate and incubated at 37° C. After 96 hr the cells were harvested and counted by an automatic haemocytometer.

thymocytes = conditions: in vitro, dose-dependent; most pronounced on CD4CD8 double positive immature T cells; cited from earlier work

Substance: thymosin alpha 1 [thymalfasin]
- thymopoiesis (number of total CD3 T cells, synthesis of IL-7) (human CD34 stem cells): increased thymopoiesis
- safety / side effects [1]: safe drug and its potential side effects are significantly low
- production of IFNγ, IL-2, IL-3 and expression of the IL-2 receptor [2]: can increase production
- Patient Survival (advanced breast cancer): 80%
- Patient Survival (advanced breast cancer; listed as THYMALFASIN): 80%
- Patients with Tumor Reduction >50% (advanced breast cancer): 80%
- Patients with Tumor Reduction >50% (advanced breast cancer; listed as THYMALFASIN): 80%
- Patient survival compared with immune responders and non immune responders who did not receive thymalfasin (advanced breast cancer; advanced breast cancer patients, dendritic cell immunization): higher
- effective tumor response (advanced breast cancer; five patients with LPI lower than 20 U, thymalfasin 1.6 mg twice a week for 6 months plus 4 additional DC vaccine courses): majority of the treated patients showed an effective tumor response
- Lymphocyte Proliferation Index (LPI) (patient tumor cells): able to improve the LPI
- dexamethasone-induced apoptosis in thymocytes (thymocytes): antagonizes
